The test system of one test is Ang-(1–7) RIA. Particulars: as previously described; ref [27]; cited from earlier work.
In test [1] the test system is Ang-(1–7) peptidase, partially purified fraction from brain medulla. As to conditions: ref [15], cited from earlier work.
Test [2] concerns the target T1, human DPP 3 (Homo sapiens, UniProt Q9NY33).
T1 sequence (Q9NY33 1-737): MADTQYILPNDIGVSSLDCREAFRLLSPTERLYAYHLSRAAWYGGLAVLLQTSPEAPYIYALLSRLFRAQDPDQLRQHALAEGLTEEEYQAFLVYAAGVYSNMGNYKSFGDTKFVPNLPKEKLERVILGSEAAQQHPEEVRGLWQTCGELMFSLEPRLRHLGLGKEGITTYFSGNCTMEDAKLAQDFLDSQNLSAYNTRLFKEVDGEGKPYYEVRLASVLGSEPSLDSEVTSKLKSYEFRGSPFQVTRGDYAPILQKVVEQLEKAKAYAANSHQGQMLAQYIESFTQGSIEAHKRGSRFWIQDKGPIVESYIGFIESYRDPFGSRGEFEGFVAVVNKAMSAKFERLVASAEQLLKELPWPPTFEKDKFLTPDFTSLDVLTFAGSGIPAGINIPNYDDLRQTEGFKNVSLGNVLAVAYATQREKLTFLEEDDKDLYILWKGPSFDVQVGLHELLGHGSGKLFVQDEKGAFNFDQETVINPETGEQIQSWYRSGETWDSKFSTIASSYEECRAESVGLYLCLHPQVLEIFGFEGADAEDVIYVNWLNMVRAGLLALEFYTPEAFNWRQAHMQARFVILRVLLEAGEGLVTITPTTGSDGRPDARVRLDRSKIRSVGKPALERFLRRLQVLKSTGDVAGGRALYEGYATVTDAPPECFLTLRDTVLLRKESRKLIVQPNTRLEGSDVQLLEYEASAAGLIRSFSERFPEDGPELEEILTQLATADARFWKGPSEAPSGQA
Briefly: Metabolism of unlabeled Ang-. Format: biochemical. Particulars: 100 μM Ang-(1–7), 37 °C, HPLC-UV.

In test [3] the target is T1, human DPP 3. Kind of test: Kinetic studies of Ang-. Format: biochemical. Particulars: 37 °C, n=3.
Another test has as its system DPP 3. Particulars: ref [2],[15]; cited from earlier work.
Test [4] deals with purified Ang-(1–7) peptidase from HK-2 cells. Briefly: JMV-390 inhibition of ^125I-Ang-. Type of test: biochemical, human. Particulars: JMV-390, Fig. 3: 0.5 and 10 nM.
A further test relates to HK-2 cells. Briefly: Intracellular Ang-. Type of test: cell-based, human.
Test [5] relates to DPP 3 activity in HK-2 cells. Kind of test: ^125I-Ang-. Format: cell-based, human. As to conditions: for peptidase activity: mean±SEM, control 136±6.
For test [6], the target named is Ang-(1–7) peptidase, partially purified fraction from brain medulla. As to conditions: JMV-390; brain medulla Ang-(1–7) peptidase; ref [15]; cited from earlier work.
Test [7] has as its target T1, human DPP 3. Kind of test: JMV-390 inhibition of ^125I-Ang-. Format: biochemical. As to conditions: JMV-390, Fig. 3: 0.5 and 10 nM.
For test [8], the target named is Ang-(1–7) peptidase in renal tubules. As to conditions: JMV-390, ref [15],[25]; cited from earlier work.
In test [9] the test system is TOP expressed in the HK-2 cells. Particulars: high dose of JMV-390; ref [25]; cited from earlier work.
Another test has as its system HK-2 peptidase. As to conditions: ref [25]; cited from earlier work.

pIC50: −log10 of the molar value. Several values for one entry are separate records, joined by “and”; a condition that tells them apart may be missing. Equal values may be shown once. Entries after “also recorded” stand apart in the source; their conditions may differ. Bounds are passed on as bounds.

Consider “Ang-(2–7): angiotensin peptide recognized by the Ang-(1–7) RIA (RVYIHP; UniProt P01019 26-31, looked up, fragment)”, for which, in the test on Ang-(1–7) RIA, the “recognition by Ang-(1–7) RIA” value is “recognizes”.

“bradykinin (RPPGFSPFR; Bradykinin; UniProt P01042 381-389, looked up)”: the “metabolism by enriched peptidase” value in test [1] was “failed to metabolize”.

As to Angiotensin-(1–7) [Ang-(1–7)], the “product of unlabeled Ang-(1–7) hydrolysis” value at human DPP 3 [2] (100 ng human DPP 3, 60 min) is “a major peak corresponding to the metabolite Ang-(5–7)”. In addition, the kcat (commonly the number of substrate molecules converted per active site and unit of time at saturation) on human DPP 3 [3] came to 7.3 s⁻¹. Also, the “hydrolysis rate, fold higher than Ang II” value in test [1] (enriched brain medulla peptidase) is recorded as 12 fold.

With `c1cnc2c(c1)ccc1cccnc12` [ophenanthroline], in the test with DPP 3, the “sensitivity of DPP 3 to thiol inhibitors and chelating agents” value was “unusual sensitivity”.

For `CC[C@H](C)[C@H](NC(=O)[C@@H](CC(=O)NO)Cc1ccccc1)C(=O)N[C@@H](CC(C)C)C(=O)O` [JMV-390], the “effect on Ang-(1–7) hydrolysis by purified Ang-(1–7) peptidase” value in test [4] was “abolished; also recorded: attenuated the metabolism”. Moreover, the “effect on intracellular content of Ang-(1–7)” value in the test with HK-2 cells (20 nM JMV-390, 72 h) is given as “tended to augment the cellular levels of Ang-(1–7); also recorded: increased the intracellular content of Ang-(1–7)”; in the test on HK-2 cells (200 nM JMV-390, 72 h), “significantly decreased the content of Ang-(1–7)”. In addition, the “increase in Ang-(1–7) content” value in the test on HK-2 cells (20 nM JMV-390, 72 h, vs basal, n = 3, not statistically significant) is reported as 68%. Moreover, the “Ang-(1–7) content” value with HK-2 cells (200 nM JMV-390, 72 h, RIA, mean±SEM, n = 3, p<0.05 vs 20 nM JMV-390, basal 22 ±2) worked out at 15 ±3 fmols/mg protein. In addition, the “increase in cellular levels of Ang-(1–7)” value with HK-2 cells (lower dose (20 nM) of JMV-390, not statistically significant) is on record as “approximately 2 fold”. Also, the peptidase activity is 76 ± 13 fmol/min/mg in [5] (20 nM JMV-390, 72 h, n = 2) and 17 ± 3 fmol/min/mg in [5] (200 nM JMV-390, 72 h, n = 3, p<0.05). Also, the “reduction of peptidase (DPP 3) activity” value in test [5] (200 nM JMV-390, 72 h, vs control, n = 3, p<0.05) was 85% and > 80%. The “effect on metabolism of ^125I-Ang-(1–7) to ^125I-Ang-(3-4)” value in [5] (20 or 200 nM JMV-390, 72 h, 100,000 × g cytosolic fraction) was “significantly reduced the metabolism”. For the same compound, at human DPP 3 [2] (JMV-390 1 μM, 100 ng DPP 3, 60 min), the “metabolism of unlabeled Ang-(1–7) to Ang-(5–7) in presence of inhibitor” value is listed as “attenuated the metabolism of Ang-(1–7)”. Further, the pIC50 – broadly, −log10 of the IC50, conventionally taken in molar units – in test [6] was greater than 9.00; in test [8] it was roughly 9.00. The “effect on Ang-(1–7) hydrolysis by DPP 3” value at human DPP 3 [7] is recorded as “abolished; also recorded: attenuated the metabolism”. In test [9], the “direct conversion of ^125I-Ang I to ^125I-Ang-(1–7) by TOP” value is reported as “inhibited the direct conversion”.

For the compound APMA, in the test on DPP 3, the “sensitivity of DPP 3 to thiol inhibitors and chelating agents” value was “unusual sensitivity”.

In the case of `O=C(O)CN(CCN(CC(=O)O)CC(=O)O)CC(=O)O` [EDTA], in the test on DPP 3, the “sensitivity of DPP 3 to thiol inhibitors and chelating agents” value is “unusual sensitivity”.

Turning to neurotensin, the “metabolism by enriched peptidase” value in test [1] is “failed to metabolize”.

Consider [Abz-Asp^1, Tyr (NO2)^7]-Ang-(1–7)], for which the “hydrolysis by HK-2 peptidase” value in the test on HK-2 peptidase was “resistant”.

As for `O=C(O)c1cc[c]([Hg][Cl])cc1` [PCMB], in the test on DPP 3, the “sensitivity of DPP 3 to thiol inhibitors and chelating agents” value was “unusual sensitivity”.

With apelin 13, the “metabolism by enriched peptidase” value in test [1] was “failed to metabolize”.

Regarding “Ang II: angiotensin peptide (DRVYIHPF; Angiotensin-2; UniProt P01019 25-32, looked up)”, the “recognition by Ang-(1–7) RIA (cross-reactivity)” value in the test on Ang-(1–7) RIA is recorded as less than 0.01%.

The record behind these values is publication PMC5500233 (Peptides, 2016).
